Here are results for one molecule from US9434704B2, “Compositions and methods for the treatment of neurological degenerative disorders” (CELLIX BIO PRIVATE LIMITED, priority 2012, dated 2016).

The Cmax is the highest concentration seen after dosing. What is called half-life is the time needed for the level to fall by half in the phase considered.

A short description of one series: in vivo. The note with it: female, Wistar, rat, ip, 8 mg/kg.
The conditions of series [1]: rat, in vivo, 8 mg/kg.

Where “and” joins values, the source holds several entries; their conditions need not be identical. Equal values may be shown once.

Consider `CC(OC(=O)CCCC[C@]1(C)CCSS1)OC(=O)Nc1nc2ccc(OC(F)(F)F)cc2s1` (stereo partly shown) [Formula II (2-1)], for which the Cmax in “in vivo” was 10200 ng/g and 3380 ng/mL. The half-life in the series “in vivo” (t1/2 in brain) is 13.2 h; in the series “in vivo” (t1/2 in cervical SC) it was 13.2 h; in the series “in vivo” (t1/2 in plasma) it was 11 h; in the series “in vivo” (t1/2 in thoracic SC), 11 h. For the same molecule, in series [1] (female, Wistar), the “time to reach spinal cord (SC)” value was at most 15 min. Moreover, the “time of Cmax in SC” value in series [1] is 1.5 h. Besides, the “absorption after I.P. administration” value in series [1] (ip) is “readily absorbed”. The “time of Cmax in brain” value in series [1] (ip) amounted to 0.7 h. Further, the “time of Cmax in plasma” value in series [1] (ip) was 0.5 h.
